ChEMBL document CHEMBL1145819 (J Med Chem, 2003)
Where “and” joins values, the source holds several entries; their conditions need not be identical. Equal entries are not always repeated.

How the values were obtained:
[1] = molecular target: T1, 5-hydroxytryptamine receptor 5A (Homo sapiens, UniProt P47898); test: Binding affinity towards 5-hydroxytryptamine 5A receptor
[2] = Antagonistoc activity of compound for 5-CT-mediated adenylate cyclase activity; assay type: functional
[3] = molecular target: T1, 5-hydroxytryptamine receptor 5A; test: Binding affinity towards human 5-hydroxytryptamine 5A receptor
[4] = molecular target: T1, 5-hydroxytryptamine receptor 5A; test: Binding affinity towards human 5-hydroxytryptamine 5A receptor was evaluated using [3H]-5-CT as radioligand
[5] = Antagonistic activity of compound in 5-HT induced cAMP accumulation; assay type: functional
[6] = molecular target: T2, 5-hydroxytryptamine receptor 6 (Homo sapiens, UniProt P50406); test: Binding affinity towards human 5-hydroxytryptamine 6 receptor
[7] = molecular target: T3, 5-hydroxytryptamine receptor 3A (Homo sapiens, UniProt P46098); test: Binding affinity towards 5-hydroxytryptamine 3 receptor
T3 sequence (P46098 whole entry): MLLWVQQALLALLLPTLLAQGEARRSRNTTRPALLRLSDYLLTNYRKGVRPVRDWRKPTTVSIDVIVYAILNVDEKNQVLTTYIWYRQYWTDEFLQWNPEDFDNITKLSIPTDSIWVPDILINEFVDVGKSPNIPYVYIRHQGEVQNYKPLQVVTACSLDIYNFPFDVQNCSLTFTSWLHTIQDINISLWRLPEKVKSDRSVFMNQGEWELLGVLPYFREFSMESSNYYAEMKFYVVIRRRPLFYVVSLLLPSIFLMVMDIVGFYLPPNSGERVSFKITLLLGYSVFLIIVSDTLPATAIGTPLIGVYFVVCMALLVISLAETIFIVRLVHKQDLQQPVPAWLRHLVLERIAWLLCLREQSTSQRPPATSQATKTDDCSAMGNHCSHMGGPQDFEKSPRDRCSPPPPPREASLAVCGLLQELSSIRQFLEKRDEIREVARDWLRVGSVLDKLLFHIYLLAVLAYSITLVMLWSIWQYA

[8] = molecular target: T2, 5-hydroxytryptamine receptor 6
[9] = molecular target: T4, 5-hydroxytryptamine receptor 5A (Mus musculus, UniProt P30966); test: Binding affinity towards mouse 5-hydroxytryptamine 5A receptor was evaluated using [3H]LSD as radioligand
[10] = molecular target: T4, 5-hydroxytryptamine receptor 5A; test: Binding affinity towards murine 5-hydroxytryptamine 5A receptor
[11] = molecular target: T5, 5-hydroxytryptamine receptor 7 (Homo sapiens, UniProt P34969)
[12] = molecular target: T5, 5-hydroxytryptamine receptor 7; test: Binding affinity towards human 5-hydroxytryptamine 7 receptor
[13] = molecular target: T6, Alpha-2A adrenergic receptor (Homo sapiens, UniProt P08913); test: Binding affinity towards Alpha-2 adrenergic receptor
T6 sequence (P08913 whole entry): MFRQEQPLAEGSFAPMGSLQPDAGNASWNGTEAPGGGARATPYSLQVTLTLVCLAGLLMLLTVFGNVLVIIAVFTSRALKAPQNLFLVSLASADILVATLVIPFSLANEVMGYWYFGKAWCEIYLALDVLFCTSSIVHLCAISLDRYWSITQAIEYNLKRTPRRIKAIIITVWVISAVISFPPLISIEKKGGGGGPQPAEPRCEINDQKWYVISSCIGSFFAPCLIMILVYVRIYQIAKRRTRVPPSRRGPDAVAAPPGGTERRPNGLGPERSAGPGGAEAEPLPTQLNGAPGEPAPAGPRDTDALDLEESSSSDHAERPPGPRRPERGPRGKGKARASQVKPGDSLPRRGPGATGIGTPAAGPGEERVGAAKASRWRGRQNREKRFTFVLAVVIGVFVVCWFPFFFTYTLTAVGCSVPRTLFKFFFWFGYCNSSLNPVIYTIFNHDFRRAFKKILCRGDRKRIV

[14] = molecular target: T7, Alpha-1A adrenergic receptor (Homo sapiens, UniProt P35348); test: Binding affinity towards alpha-1-adrenergic receptor
T7 sequence (P35348 whole entry): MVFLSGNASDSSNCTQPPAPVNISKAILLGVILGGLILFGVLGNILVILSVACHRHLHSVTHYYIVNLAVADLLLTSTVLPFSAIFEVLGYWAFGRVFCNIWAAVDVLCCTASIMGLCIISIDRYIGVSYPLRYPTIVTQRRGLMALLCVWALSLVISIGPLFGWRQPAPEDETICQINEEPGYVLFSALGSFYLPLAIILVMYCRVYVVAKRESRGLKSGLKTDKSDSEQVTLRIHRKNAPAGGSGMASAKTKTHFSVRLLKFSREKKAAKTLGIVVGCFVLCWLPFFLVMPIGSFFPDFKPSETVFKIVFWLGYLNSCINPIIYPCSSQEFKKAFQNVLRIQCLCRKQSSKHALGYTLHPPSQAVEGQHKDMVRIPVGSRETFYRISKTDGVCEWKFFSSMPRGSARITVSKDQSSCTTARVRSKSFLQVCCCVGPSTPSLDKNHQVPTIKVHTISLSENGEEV

[15] = molecular target: T2, 5-hydroxytryptamine receptor 6; test: Binding affinity towards human 5-hydroxytryptamine 6 receptor was evaluated using [3H]-LSD as radioligand
[16] = Antagonistic activity of compound in cAMP accumulation was evaluated; assay type: functional
[17] = molecular target: Serotonin 2 (5-HT2) receptor (Homo sapiens, UniProt P41595+P28223+P28335); test: Binding affinity towards 5-HT2 receptor; assay type: protein assay
[18] = molecular target: T2, 5-hydroxytryptamine receptor 6; test: Antagonistic activity towards 5-hydroxytryptamine 6 receptor; assay type: functional; settings: read-out: pA2 (converted)
[19] = molecular target: 5-hydroxytryptamine receptor 7 (Rattus norvegicus, UniProt P32305); test: Binding affinity towards rat 5-hydroxytryptamine 7 receptor
[20] = molecular target: T5, 5-hydroxytryptamine receptor 7; remark: listed apart in the source
[21] = molecular target: T4, 5-hydroxytryptamine receptor 5A; test: Binding affinity towards mouse 5-hydroxytryptamine 5A receptor

T2 sequence (P50406 whole entry): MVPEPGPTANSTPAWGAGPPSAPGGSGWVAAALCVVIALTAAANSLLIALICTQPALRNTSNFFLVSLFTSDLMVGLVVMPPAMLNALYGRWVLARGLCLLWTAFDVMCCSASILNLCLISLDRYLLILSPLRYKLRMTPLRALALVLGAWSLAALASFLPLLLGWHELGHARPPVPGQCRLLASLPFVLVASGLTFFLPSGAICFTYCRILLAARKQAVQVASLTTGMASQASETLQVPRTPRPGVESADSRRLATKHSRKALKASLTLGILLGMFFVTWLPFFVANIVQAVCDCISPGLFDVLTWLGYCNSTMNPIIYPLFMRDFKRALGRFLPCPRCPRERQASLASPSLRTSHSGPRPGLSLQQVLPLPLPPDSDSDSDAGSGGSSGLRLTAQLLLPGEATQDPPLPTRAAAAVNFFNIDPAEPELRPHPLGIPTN
T1 sequence (P47898 whole entry): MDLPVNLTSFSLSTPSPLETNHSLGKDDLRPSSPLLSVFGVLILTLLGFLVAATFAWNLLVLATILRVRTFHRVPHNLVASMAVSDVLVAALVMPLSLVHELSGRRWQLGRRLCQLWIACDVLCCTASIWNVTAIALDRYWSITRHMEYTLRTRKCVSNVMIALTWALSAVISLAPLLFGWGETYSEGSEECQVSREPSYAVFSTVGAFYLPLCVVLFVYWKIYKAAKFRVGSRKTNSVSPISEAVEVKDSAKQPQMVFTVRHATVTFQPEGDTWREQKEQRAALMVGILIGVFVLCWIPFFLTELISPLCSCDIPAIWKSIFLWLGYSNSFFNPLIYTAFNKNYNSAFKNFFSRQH
T4 sequence (P30966 whole entry): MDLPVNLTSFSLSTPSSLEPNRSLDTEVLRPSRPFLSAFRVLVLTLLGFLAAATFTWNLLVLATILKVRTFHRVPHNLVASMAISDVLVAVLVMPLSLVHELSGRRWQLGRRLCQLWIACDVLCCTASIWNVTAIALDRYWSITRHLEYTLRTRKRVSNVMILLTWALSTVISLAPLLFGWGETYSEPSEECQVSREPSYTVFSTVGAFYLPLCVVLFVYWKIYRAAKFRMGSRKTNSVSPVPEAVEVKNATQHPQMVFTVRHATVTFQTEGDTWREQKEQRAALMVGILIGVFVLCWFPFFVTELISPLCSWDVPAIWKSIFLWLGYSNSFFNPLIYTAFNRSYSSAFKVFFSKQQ
T5 sequence (P34969 whole entry): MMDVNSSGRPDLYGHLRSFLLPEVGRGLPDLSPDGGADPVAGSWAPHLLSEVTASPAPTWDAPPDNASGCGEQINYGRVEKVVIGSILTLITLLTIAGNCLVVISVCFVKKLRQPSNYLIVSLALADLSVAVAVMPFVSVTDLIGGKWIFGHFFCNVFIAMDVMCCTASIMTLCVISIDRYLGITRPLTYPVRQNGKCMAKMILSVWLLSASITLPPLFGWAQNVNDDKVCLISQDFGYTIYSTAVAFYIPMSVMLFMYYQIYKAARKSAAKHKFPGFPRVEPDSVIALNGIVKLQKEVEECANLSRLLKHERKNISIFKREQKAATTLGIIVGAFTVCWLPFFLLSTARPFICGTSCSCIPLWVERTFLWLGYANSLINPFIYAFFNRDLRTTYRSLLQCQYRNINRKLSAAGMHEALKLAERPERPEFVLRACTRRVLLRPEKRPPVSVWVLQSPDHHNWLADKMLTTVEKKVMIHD
5-hydroxytryptamine receptor 7 (Rattus norvegicus, UniProt P32305), sequence (P32305 whole entry): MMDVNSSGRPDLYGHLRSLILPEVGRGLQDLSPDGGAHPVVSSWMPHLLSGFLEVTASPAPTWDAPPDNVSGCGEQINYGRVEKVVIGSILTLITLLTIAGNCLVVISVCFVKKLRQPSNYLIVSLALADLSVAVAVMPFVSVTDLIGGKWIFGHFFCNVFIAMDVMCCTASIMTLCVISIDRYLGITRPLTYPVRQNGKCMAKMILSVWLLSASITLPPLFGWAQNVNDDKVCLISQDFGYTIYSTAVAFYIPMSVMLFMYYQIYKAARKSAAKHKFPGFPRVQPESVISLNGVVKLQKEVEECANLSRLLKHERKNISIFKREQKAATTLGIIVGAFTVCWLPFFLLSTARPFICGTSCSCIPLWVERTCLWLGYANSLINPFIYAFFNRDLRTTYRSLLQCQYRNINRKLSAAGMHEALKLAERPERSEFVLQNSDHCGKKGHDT

Cl.O=S(=O)(c1ccc2cc[nH]c2c1)N1CCC[C@@H]1CCN1CCC(Oc2ccc(Cl)cc2)CC1
Ki [1]: 0.168 µM
pA2 [2]: 8.1

O=C(c1ccc(F)cc1)C1CCN(CCn2c(=O)[nH]c3ccccc3c2=O)CC1 [KETANSERIN]
Ki [3]: 20 µM
Ki [4]: 20 µM

CNc1cc(NS(=O)(=O)c2ccc(N)cc2)cc(NC)n1
pA2 [5]: 7.1
Ki [6]: 0.012 µM

COc1ccc2[nH]c(C)c(CCN)c2c1
Ki [7]: > 10 µM
Ki [8]: 0.08 µM

c1ccc2nc(N3CCNCC3)ccc2c1 [QUIPAZINE]
Ki [9]: > 10 µM
Ki [10]: > 10 µM

CC1CCN(CC[C@H]2CCCN2S(=O)(=O)c2cccc(O)c2)CC1
pKb [11]: 8.3

Cc1cccc(C#N)c1-c1cccc2c1-c1cccc3c1[C@@H](C2)N(C)CC3
Ki [12]: 0.0208 µM and 0.00379 µM

CN1CCc2ccc3c4c2[C@H]1Cc1cccc(c1-4)[C@H]3N
Ki [12]: 0.0134 µM

Cc1c(N=C2NCCN2)cccc1-c1ccccc1
Ki [12]: 0.016 µM
Ki [13]: 0.019 µM
Ki [14]: 0.2 µM

COc1ccc2c(c1)c(CCN(C)C)cn2-c1ccccc1
Ki [8]: 0.033 µM

NCCc1c[nH]c2ccc(C(N)=O)cc12
Ki [15]: 0.72 µM
Ki [3]: 0.02 µM
Ki [4]: 0.02 µM

COc1ccc(NS(=O)(=O)c2sc3ccc(Cl)cc3c2C)cc1N1CCN(C)CC1
pKb [16]: 8.5

Oc1ccccc1N1CCNCC1
Ki [10]: 0.215 µM

CCc1c(C)[nH]c2c1C(=O)C(CN1CCOCC1)CC2 (stereo not given) [MOLINDONE]
Ki [12]: 0.265 µM

O=C1Nc2cccc3c2C1(CCCCN1CC=C(c2ccccc2)CC1)CCC3 (stereo not given)
Ki [17]: 0.098 µM

CN(C)CCc1cn(S(=O)(=O)c2ccccc2)c2ccccc12
Ki [8]: 0.0041 µM

CNc1cc(NS(=O)(=O)c2ccc(N)cc2)nc(N)n1
Ki [8]: 1 µM

COc1ccc2c(c1)c(CCN(C)C)cn2S(=O)(=O)c1ccccc1
Kb [18]: 0.00132 µM
Ki [8]: 0.0021 µM

Cc1ccc(S(=O)(=O)n2cc3c4c(cccc42)[C@H](O)[C@@H](N)C3)cc1
Ki [8]: 0.0072 µM

CNc1cc(Br)cc(NS(=O)(=O)c2ccc(N)cc2)c1
Ki [8]: 0.02 µM

CNC(=O)Cn1c2c(c3ccccc31)CCN(CCCCC13CCCc4cccc(c41)NC3=O)C2 (stereo not given)
Ki [12]: 0.004 µM
Ki [17]: > 1 µM

CN1C[C@H](CNC(=O)OCc2ccccc2)C[C@@H]2c3cccc4[nH]cc(c34)C[C@H]21
Ki [15]: 0.4 µM
Ki ([19]; read-out: Ki): 0.06 µM
Ki [20]: 0.0064 µM

CCCN(CCC)C1CCc2cccc(O)c2C1 (stereo not given) [8-OH-DPAT]
Ki [15]: > 10 µM
Ki [19]: 0.15 µM

COc1ccc(NS(=O)(=O)c2sc3ccc(Cl)cc3c2C)cc1N1CCN2CCC[C@H]2C1
pKb [16]: 7.7

Nc1ccc(S(=O)(=O)Nc2cc(Br)cc3[nH]ccc23)cc1
Ki [8]: 0.05 µM

COc1cc(N)c(Cl)cc1C(=O)NC1CN2CCC1CC2 (stereo not given) [ZACOPRIDE]
Ki [3]: 16 µM

O=C1Nc2cccc3c2C1(CCCN1CCN(c2ccccc2)CC1)CCC3 (stereo not given)
Ki [17]: 0.016 µM

O=C(CCCN1CCC2(CC1)C(=O)NCN2c1ccccc1)c1ccc(F)cc1 [SPIPERONE]
Ki [15]: 1.59 µM
Ki [8]: 1.59 µM
Ki [4]: 63 µM

COc1ccc2c(c1)c(CCN(C)C)cn2Cc1ccccc1
Ki [8]: 0.0065 µM

CN1CCN(C2=Nc3cc(Cl)ccc3Nc3ccccc32)CC1 [CLOZAPINE]
Ki [4]: 1 µM

CN1CCc2cccc3c2[C@H]1Cc1cccc(-c2ccccc2)c1-3
Ki [12]: 0.00978 µM

Nc1ccc(S(=O)(=O)Nc2cc(N)nc(Br)c2)cc1
Ki [8]: 0.055 µM

c1ccc2c3c([nH]c2c1)CNCC3 [TRYPTOLINE]
Ki [21]: 2.47 µM
Ki [8]: > 5 µM
